Test results published in US10722495B2, “Cyanoindazole compounds and uses thereof” (Incyte Corporation, priority 2017, dated 2020).

What follows are compounds tested against HPK1 (Homo sapiens (Human), UniProt Q92918) (assay: HPK1 Kinase Binding Assay). Details: active HPK1 (SignalChem M23-11G), tracer 222, LanthaScreen Eu-Anti GST antibody, one hour incubation at 25° C.
Procedure: Example A. HPK1 Kinase Binding Assay
A stock solution of 1 mM test compound was prepared in DMSO. The compound plate was prepared by 3-fold and 11-point serial dilutions. 0.1 μL of the compound in DMSO was transferred from the compound plate to the white 384 well polystyrene plates. The assay buffer contained 50 mM HEPES, pH 7.5, 0.01% Tween-20, 5 mM MgCl2, 0.01% BSA, and 5 mM DTT. 5 μl of 4 nM active HPK1 (SignalChem M23-11G) prepared in the buffer was added to the plate. The enzyme concentration given was based on the given stock concentration reported by the vender. 5 μl of 18 nM tracer 222 (ThermoFisher PV6121) and 4 nM LanthaScreen Eu-Anti GST antibody (ThermoFisher PV5595) were added. After one hour incubation at 25° C., the plates were read on a PHERAstar FS plate reader (BMG Labtech). Ki values were determined.

Sequence of HPK1 (Q92918 1-346): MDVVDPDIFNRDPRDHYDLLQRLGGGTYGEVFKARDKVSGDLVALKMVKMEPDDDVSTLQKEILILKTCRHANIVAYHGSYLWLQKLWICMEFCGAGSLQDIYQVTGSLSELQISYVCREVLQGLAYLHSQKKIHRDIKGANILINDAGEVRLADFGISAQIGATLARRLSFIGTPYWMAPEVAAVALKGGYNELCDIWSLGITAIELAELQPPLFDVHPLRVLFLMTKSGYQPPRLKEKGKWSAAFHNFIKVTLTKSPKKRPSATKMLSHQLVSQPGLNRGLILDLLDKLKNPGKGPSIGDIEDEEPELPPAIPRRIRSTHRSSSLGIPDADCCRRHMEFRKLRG

Ki, ≤ 100 nM:
CCn1cc(-c2n[nH]c3cc(C#N)c(-c4c(C)cc(CNC)cc4F)cc23)cn1 [Example 1, 3-(1-Ethyl-1H-pyrazol-4-yl)-5-(2-fluoro-6-methyl-4-((methylamino)methyl)phenyl)-1H-indazole-6-carbonitrile]
CNCc1cc(C)c(-c2cc3c(-c4cnn(C5CC5)c4)n[nH]c3cc2C#N)c(F)c1 [Example 2, 3-(1-Cyclopropyl-1H-pyrazol-4-yl)-5-(2-fluoro-6-methyl-4-((methylamino)methyl)phenyl)-1H-indazole-6-carbonitrile]
CNCc1cc(C)c(-c2cc3c(-c4cnn(CC(F)(F)F)c4)n[nH]c3cc2C#N)c(F)c1 [Example 3, 5-(2-Fluoro-6-methyl-4-((methylamino)methyl)phenyl)-3-(1-(2,2,2-trifluoroethyl)-1H-pyrazol-4-yl)-1H-indazole-6-carbonitrile]
CNCc1cc(C)c(-c2cc3c(-c4cn[nH]c4)n[nH]c3cc2C#N)c(F)c1 [Example 4, 5-(2-Fluoro-6-methyl-4-((methylamino)methyl)phenyl)-3-(1H-pyrazol-4-yl)-1H-indazole-6-carbonitrile]
CNCc1cc(C)c(-c2cc3c(-c4cnn(-c5ccccc5Cl)c4)n[nH]c3cc2C#N)c(F)c1 [Example 5, 3-(1-(2-Chlorophenyl)-1H-pyrazol-4-yl)-5-(2-fluoro-6-methyl-4-((methylamino)methyl)phenyl)-1H-indazole-6-carbonitrile]
CNCc1cc(C)c(-c2cc3c(-c4cnn(C(C)C)c4)n[nH]c3cc2C#N)c(F)c1 [Example 6, 5-(2-Fluoro-6-methyl-4-((methylamino)methyl)phenyl)-3-(1-isopropyl-1H-pyrazol-4-yl)-1H-indazole-6-carbonitrile]
CNCc1cc(C)c(-c2cc3c(-c4ccc(CO)cc4)n[nH]c3cc2C#N)c(F)c1 [Example 7, 5-(2-Fluoro-6-methyl-4-((methylamino)methyl)phenyl)-3-(4-(hydroxymethyl)phenyl)-1H-indazole-6-carbonitrile]
CNCc1cc(C)c(-c2cc3c(-c4ccc(C(=O)NC)cc4)n[nH]c3cc2C#N)c(F)c1 [Example 8, 4-(6-Cyano-5-(2-fluoro-6-methyl-4-((methylamino)methyl)phenyl)-1H-indazol-3-yl)-N-methylbenzamide]
CNCc1cc(C)c(-c2cc3c(-c4ccc(C(=O)N(C)C)cc4)n[nH]c3cc2C#N)c(F)c1 [Example 9, 4-(6-Cyano-5-(2-fluoro-6-methyl-4-((methylamino)methyl)phenyl)-1H-indazol-3-yl)-N,N-dimethylbenzamide]
CNCc1cc(C)c(-c2cc3c(-c4ccc(NC(C)=O)cc4)n[nH]c3cc2C#N)c(F)c1 [Example 10, N-(4-(6-Cyano-5-(2-fluoro-6-methyl-4-((methylamino)methyl)phenyl)-1H-indazol-3-yl)phenyl)acetamide]
CNCc1cc(C)c(-c2cc3c(-c4ccc(C)cc4)n[nH]c3cc2C#N)c(F)c1 [Example 11, 5-(2-Fluoro-6-methyl-4-((methylamino)methyl)phenyl)-3-p-tolyl-1H-indazole-6-carbonitrile]
CNCc1cc(C)c(-c2cc3c(-c4cccc(OC)c4)n[nH]c3cc2C#N)c(F)c1 [Example 12, 5-(2-Fluoro-6-methyl-4-((methylamino)methyl)phenyl)-3-(3-methoxyphenyl)-1H-indazole-6-carbonitrile]
CNCc1cc(C)c(-c2cc3c(-c4ccc(OC)cc4)n[nH]c3cc2C#N)c(F)c1 [Example 13, 5-(2-Fluoro-6-methyl-4-((methylamino)methyl)phenyl)-3-(4-methoxyphenyl)-1H-indazole-6-carbonitrile]
CNCc1cc(C)c(-c2cc3c(-c4ccc(C(F)(F)F)cc4)n[nH]c3cc2C#N)c(F)c1 [Example 14, 5-(2-Fluoro-6-methyl-4-((methylamino)methyl)phenyl)-3-(4-(trifluoromethyl)phenyl)-1H-indazole-6-carbonitrile]
CNCc1cc(C)c(-c2cc3c(-c4ccc(C5CC5)cc4)n[nH]c3cc2C#N)c(F)c1 [Example 15, 3-(4-Cyclopropylphenyl)-5-(2-fluoro-6-methyl-4-((methylamino)methyl)phenyl)-1H-indazole-6-carbonitrile]
CNCc1cc(C)c(-c2cc3c(-c4ccc(CC#N)cc4)n[nH]c3cc2C#N)c(F)c1 [Example 16, 3-(4-(Cyanomethyl)phenyl)-5-(2-fluoro-6-methyl-4-((methylamino)methyl)phenyl)-1H-indazole-6-carbonitrile]
CNCc1cc(C)c(-c2cc3c(-c4ccc(C(=O)NC)c(F)c4)n[nH]c3cc2C#N)c(F)c1 [Example 17, 4-(6-Cyano-5-(2-fluoro-6-methyl-4-((methylamino)methyl)phenyl)-1H-indazol-3-yl)-2-fluoro-N-methylbenzamide]
CNCc1cc(C)c(-c2cc3c(-c4ccc(S(C)(=O)=O)cc4)n[nH]c3cc2C#N)c(F)c1 [Example 18, 5-(2-Fluoro-6-methyl-4-((methylamino)methyl)phenyl)-3-(4-(methylsulfonyl)phenyl)-1H-indazole-6-carbonitrile]
CNCc1cc(C)c(-c2cc3c(-c4ccc(C(C)(C)C#N)cc4)n[nH]c3cc2C#N)c(F)c1 [Example 19, 3-(4-(2-Cyanopropan-2-yl)phenyl)-5-(2-fluoro-6-methyl-4-((methylamino)methyl)phenyl)-1H-indazole-6-carbonitrile]
CNCc1cc(C)c(-c2cc3c(-c4ccc(C5(C#N)CC5)cc4)n[nH]c3cc2C#N)c(F)c1 [Example 20, 3-(4-(1-Cyanocyclopropyl)phenyl)-5-(2-fluoro-6-methyl-4-((methylamino)methyl)phenyl)-1H-indazole-6-carbonitrile]
CNCc1cc(C)c(-c2cc3c(-c4ccc(C(=O)N(C)C)c(F)c4)n[nH]c3cc2C#N)c(F)c1 [Example 21, 4-(6-Cyano-5-(2-fluoro-6-methyl-4-((methylamino)methyl)phenyl)-1H-indazol-3-yl)-2-fluoro-N,N-dimethylbenzamide]
CNCc1cc(C)c(-c2cc3c(-c4ccc(C(=O)NC(C)C)cc4Cl)n[nH]c3cc2C#N)c(F)c1 [Example 22, 3-Chloro-4-(6-cyano-5-(2-fluoro-6-methyl-4-((methylamino)methyl)phenyl)-1H-indazol-3-yl)-N-isopropylbenzamide]
CNCc1cc(C)c(-c2cc3c(-c4ccc(S(C)(=O)=O)c(F)c4)n[nH]c3cc2C#N)c(F)c1 [Example 23, 3-(3-Fluoro-4-(methylsulfonyl)phenyl)-5-(2-fluoro-6-methyl-4-((methylamino)methyl)phenyl)-1H-indazole-6-carbonitrile]
CNCc1cc(C)c(-c2cc3c(-c4ccc(S(C)(=O)=O)cc4Cl)n[nH]c3cc2C#N)c(F)c1 [Example 24, 3-(2-Chloro-4-(methylsulfonyl)phenyl)-5-(2-fluoro-6-methyl-4-((methylamino)methyl)phenyl)-1H-indazole-6-carbonitrile]
CNCc1cc(C)c(-c2cc3c(-c4ccc(S(=O)(=O)C(C)C)cc4)n[nH]c3cc2C#N)c(F)c1 [Example 25, 5-(2-Fluoro-6-methyl-4-((methylamino)methyl)phenyl)-3-(4-(isopropylsulfonyl)phenyl)-1H-indazole-6-carbonitrile]
CNCc1cc(C)c(-c2cc3c(-c4cnn(C)c4)n[nH]c3cc2C#N)c(F)c1 [Example 26, 5-(2-Fluoro-6-methyl-4-((methylamino)methyl)phenyl)-3-(1-methyl-1H-pyrazol-4-yl)-1H-indazole-6-carbonitrile]
CNCc1cc(C)c(-c2cc3c(-c4cnc(N5CCN(C)CC5)nc4)n[nH]c3cc2C#N)c(F)c1 [Example 27, 5-(2-Fluoro-6-methyl-4-((methylamino)methyl)phenyl)-3-(2-(4-methylpiperazin-1-yl)pyrimidin-5-yl)-1H-indazole-6-carbonitrile]
CNCc1cc(C)c(-c2cc3c(-c4ccc(N5CCOCC5)nc4)n[nH]c3cc2C#N)c(F)c1 [Example 28, 5-(2-Fluoro-6-methyl-4-((methylamino)methyl)phenyl)-3-(6-morpholinopyridin-3-yl)-1H-indazole-6-carbonitrile]
CNCc1cc(C)c(-c2cc3c(-c4ccc(NC(C)=O)nc4)n[nH]c3cc2C#N)c(F)c1 [Example 29, N-(5-(6-Cyano-5-(2-fluoro-6-methyl-4-((methylamino)methyl)phenyl)-1H-indazol-3-yl)pyridin-2-yl)acetamide]
CNCc1cc(C)c(-c2cc3c(-c4ccc(N5CCN(C(C)=O)CC5)nc4)n[nH]c3cc2C#N)c(F)c1 [Example 30, 3-(6-(4-Acetylpiperazin-1-yl)pyridin-3-yl)-5-(2-fluoro-6-methyl-4-((methylamino)methyl)phenyl)-1H-indazole-6-carbonitrile]
CNCc1cc(C)c(-c2cc3c(-c4ccnc(C)c4)n[nH]c3cc2C#N)c(F)c1 [Example 31, 5-(2-Fluoro-6-methyl-4-((methylamino)methyl)phenyl)-3-(2-methylpyridin-4-yl)-1H-indazole-6-carbonitrile]
CNCc1cc(C)c(-c2cc3c(-c4ccc(C5CCOCC5)nc4)n[nH]c3cc2C#N)c(F)c1 [Example 32, 5-(2-Fluoro-6-methyl-4-((methylamino)methyl)phenyl)-3-(6-(tetrahydro-2H-pyran-4-yl)pyridin-3-yl)-1H-indazole-6-carbonitrile]
